This note sets out measurements from patent US20100317630A1, “NOVEL HETEROCYCLIC COMPOUNDS AS MGLU5 ANTAGONISTS” (RECORDATI IRELAND LIMITED, priority 2009, published 2010).

The pKi is the Ki on a negative log10 scale, so that one unit is a factor of ten.

The target of one assay is T1, mGlu5 receptor (Rattus norvegicus, UniProt P31424).
T1 construct: from tissue; host or cells: forebrain (cortex, striatum and hippocampus) of male Sprague Dawley rats
The experiment in a line: Radioligand binding assay at metabotropic glutamate receptor 5 in rat brain ([3H]MPEP, forebrain membranes). The conditions noted are these: 4 nM [3H]MPEP, read-out: affinity (Ki) for mGlu5 receptor. As to the method: Radioligand Binding Assay at metabotropic glutamate receptor 5 in rat brain.
a) Membrane preparation: male Sprague Dawley rats (200-300 g, Charles River, Italy) were killed by cervical dislocation and the forebrain (cortex, striatum and hippocampus) was homogenized (2×20 sec) in 50 vols of cold 50 mM Tris buffer pH 7.4, using a Politron homogenizer (Kinematica). Homogenates were centrifuged at 48000×g for 15 min, resuspended in 50 vols of the same buffer, incubated at 37° C. for 15 min and centrifuged and resuspended two more times. The final pellets were frozen and stored at −80° C. until use.
b) Binding assay: pellets from rat forebrain were resuspended in 100 vols of 20 mM HEPES, 2 mM MgCl2, 2 mM CaCl2, pH 7.4. The membranes were incubated in a final volume of 1 ml for 60 min at 25° C. with 4 nM [^3H]MPEP in the absence or presence of competing drugs. Non-specific binding was determined in the presence of 10 μM MPEP (Spooren W. et al., Trends Pharmacol Sci. 22, 331-337, 2001). The incubation was stopped by the addition of cold Tris buffer pH 7.4 and rapid filtration through 0.5% polyethyleneimine pretreated Filtermat 1204-401 (Wallac) filters. The filters were then washed with cold buffer and the radioactivity retained on the filters was counted by liquid scintillation spectrometry. […]

A further assay deals with conscious rats. Briefly: Effect on cystometry in conscious rats (bladder volume capacity). The assay is classed as in vivo, rat. How it is done: Male Sprague-Dawley rats [Crl: CD® (SD) IGS BR] of 300-400 g b.w. supplied by Charles River Italia were used. The animals were housed with free access to food and water and maintained on a forced 12-hour-light/12-hour-dark cycle at 22-24° C. of temperature, except during the experiment. To quantify urodynamic parameters in conscious rats, cystometrographic studies were performed according to the procedure previously reported (Guarneri et al., Pharmacol. Res. 24: 175, 1991).
Briefly, the rats were anaesthetised by intraperitoneal administration of 3 ml/kg of Equithensin solution (pentobarbital 30 mg/kg and chloral hydrate 125 mg/kg) and placed in a supine position. An approximately 10 mm long midline incision was made in the shaved and cleaned abdominal wall. The urinary bladder was gently freed from adhering tissues, emptied and then cannulated via an incision in the bladder body, using a polyethylene cannula (0.58 mm internal diameter, 0.96 mm external diameter) which was permanently sutured with silk thread. […]
On the day of the experiment, the rats were placed in modified Bollman cages, i.e., restraining cages that were large enough to permit the rats to adopt a normal crouched posture, but narrow enough to prevent turning around. […] The intraluminal-pressure signal during infusion of saline into the bladder (cystometrogram) was continuously recorded on a polygraph (Rectigraph-8K San-ei with BM614/2 amplifier from Biomedica Mangoni) or stored on PC by data acquisition system (PowerLab, Chart 4 software, AD Instruments). From the cystometrogram, bladder volume capacity (BVC) was evaluated. […] Basal BVC value was evaluated as the mean of the values observed in the cystometrograms recorded in an initial period of 30-60 minutes. […] The bladder infusion restarted and changes in BVC were evaluated from the mean values obtained in the cystometrograms observed during 1, 2, and 3 hours after treatment. […]
Each experimental group was composed of 4-11 animals. All data were expressed as mean±standard error. […]

pKi: −log10 of the molar value.

T1 sequence (P31424 21-1203): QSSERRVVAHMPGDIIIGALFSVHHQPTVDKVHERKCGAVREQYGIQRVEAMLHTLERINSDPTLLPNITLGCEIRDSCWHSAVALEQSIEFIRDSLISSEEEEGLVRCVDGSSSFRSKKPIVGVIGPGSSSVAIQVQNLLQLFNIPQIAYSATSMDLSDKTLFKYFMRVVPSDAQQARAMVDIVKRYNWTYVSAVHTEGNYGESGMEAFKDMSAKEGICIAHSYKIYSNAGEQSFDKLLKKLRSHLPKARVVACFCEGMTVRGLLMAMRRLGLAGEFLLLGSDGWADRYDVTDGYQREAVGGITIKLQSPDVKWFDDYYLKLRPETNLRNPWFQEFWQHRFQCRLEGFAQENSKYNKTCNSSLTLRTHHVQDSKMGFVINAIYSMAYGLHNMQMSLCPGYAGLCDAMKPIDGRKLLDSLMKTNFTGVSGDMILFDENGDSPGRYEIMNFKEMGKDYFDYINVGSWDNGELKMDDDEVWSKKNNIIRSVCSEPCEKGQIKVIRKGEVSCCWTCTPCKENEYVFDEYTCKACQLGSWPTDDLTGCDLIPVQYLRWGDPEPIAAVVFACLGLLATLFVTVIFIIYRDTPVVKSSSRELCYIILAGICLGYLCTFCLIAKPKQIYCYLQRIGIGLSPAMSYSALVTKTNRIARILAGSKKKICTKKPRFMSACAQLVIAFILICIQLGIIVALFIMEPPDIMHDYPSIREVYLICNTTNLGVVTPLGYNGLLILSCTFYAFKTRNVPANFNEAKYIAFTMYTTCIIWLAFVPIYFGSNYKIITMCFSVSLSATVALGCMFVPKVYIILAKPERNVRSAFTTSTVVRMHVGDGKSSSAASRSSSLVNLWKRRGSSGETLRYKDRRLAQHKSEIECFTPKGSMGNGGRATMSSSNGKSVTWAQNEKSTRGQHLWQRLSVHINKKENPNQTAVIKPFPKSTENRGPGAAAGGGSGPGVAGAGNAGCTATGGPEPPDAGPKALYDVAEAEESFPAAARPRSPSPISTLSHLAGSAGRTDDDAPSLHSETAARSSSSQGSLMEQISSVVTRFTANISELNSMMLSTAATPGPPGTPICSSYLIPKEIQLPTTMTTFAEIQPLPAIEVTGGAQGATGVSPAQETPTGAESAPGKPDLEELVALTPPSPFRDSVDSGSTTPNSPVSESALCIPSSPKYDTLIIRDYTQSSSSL

`Cc1ccc([N+](=O)[O-])c(N2CCC(=C/C=C/c3ccccc3)CC2)n1` [Example 1, 6-Methyl-3-nitro-2-[4-[(E)-3-phenylprop-2-enylidene]-1-piperidyl]pyridine]: at mGlu5 receptor, the pKi is 8.85.
Consider `Cc1nc(C#Cc2cccnc2)cs1` [MTEP], for which the “increase of bladder volume capacity” value in the assay with conscious rats (1 mg/kg orally) is on record as “slight increase”; in the assay on conscious rats (3 mg/kg orally, statistically significant from the vehicle group after 3 hours from treatment), “sustained increase”. Also, the “MED (Minimal Effective Dose that induces statistically significant increase of bladder volume capacity)” value with conscious rats (oral) is 3.
